Experimental findings from US9618511B2, “Methods and compositions for treating alzheimer's disease” (Eleanore Bennett Charitable Trust #2, priority 2008, dated 2017) are described below.

“Also recorded” adds a separate entry of the source.

Assay [1] deals with PI3K (p85) from NIH/3T3 cells. In words: PI3K activity assay (conversion of PI to PI3P, TLC). It is filed as biochemical.
Procedure: PI3K was immunoprecipitated (IP) from the NIH/3T3 cell lysates with rabbit anti-p85 subunit (Upstate). The IPs were washed twice with cold phosphate buffered saline (PBS) buffer containing 0.5% NP-40 and 0.1 mM Na3VO4, and then twice with THE buffer [Tris.HCl pH7.4 20 mM, NaCl 100 mM, EGTA 0.5 mM]. PI3K activity was determined by incubating the beads with kinase buffer [6.5 mM HEPES (pH 7.4), 10 mM MgCl2] with 50 μM ATP, 2 μCi [y-32P]ATP, 4 μg of 3-sn-Phosphatidyl-L-serine (PS) and 2 μg of D-myo-Phosphatidylinositol (PtdIns; PI) (Echelon, Salt Lake City, Utah) for 10 min at room temperature. The reactions were stopped by adding 50 μl of 4N HCl. Phospholipids were extracted using 100 μl of CHCl3/methanol (1:1). […] The conversion of PI to PI3P was detected and quantified using a Storm Phosphorimager (GE Healthcare).
Phosphatidylinositol (PI), including phosphatidylserine (PS) as a carrier, was used as a substrate for PI3K activity assay. [y-32P]ATP and kinase buffer were added to the IP and lipid mixture at room temperature to start the reaction. Phospholipids were extracted in 100 μl of CHCl3/methanol and separated by TLC. Bar charts give quantified results using a phosphorimager.
The target of another assay is T1, pre-activated Akt1 (Mus musculus, UniProt P31750).
T1 construct: Akt1 was immunoprecipitated from control and insulin treated C2C12 myotubes for in vitro kinase assay; endogenous in cells; host or cells: insulin-treated mouse C2C12 myotubes
Put plainly: In vitro kinase assay on pre-activated (insulin-conditioned) Akt1. It is filed as biochemical, mouse (C2C12 myotubes). Particulars: 10 μM peptide. The procedure: Akt1 was immunoprecipitated (IP) overnight from 100 μg of the human brain sample or from C2C12 myotubes infected with adenovirus encoding Aβ using a 1:100 dilution of goat anti-Akt1 antibody. The following morning, 40 μl of a 50% slurry of protein G-Agarose (PGA) (Roche Applied Science) was added for an additional 1.5 hours. The beads were washed twice with wash buffer [1× phosphate buffered saline (PBS), 0.5% NP-40, 0.1 mM Na3VO4] and twice with kinase buffer [25 mM Tris (pH 7.5), 2 mM DTT, 0.1 mM Na3VO4, 10 mM MgCl2]. ATP (200 μM) and GSK-3 fusion protein (1 μg/50 μl) were added in the presence of kinase buffer, and the final reaction (50 μl) was incubated 30 minutes at 30° C. The reaction was stopped by adding 40 μl of Laemmli buffer. 20 μl of sample was loaded onto a 10% polyacrylamide gel for fractionation and western detection development.
Variably however, the degree of inhibition sometimes exceeded the baseline activity in the absence of PDK. Thus, it is possible that Aβ may have an additional action to deactivate Akt. […] Insulin stimulated Akt activity in extracts made from C2C12myotube cultures (FIG. 9A, 3rd row, lane 2 vs. 1). […]
In FIG. 9B Aβ42 (10 μM) and scrambled Aβ42 had no effect on insulin-conditioned Akt1 activity. Protein phosphatase 2A (PP2A; 5 μg/ml) decreased levels of both p-Akt (Ser473) and Akt activity (p-GSK-3 α/β), quantified by densitometry below.

T1 sequence (P31750 whole entry): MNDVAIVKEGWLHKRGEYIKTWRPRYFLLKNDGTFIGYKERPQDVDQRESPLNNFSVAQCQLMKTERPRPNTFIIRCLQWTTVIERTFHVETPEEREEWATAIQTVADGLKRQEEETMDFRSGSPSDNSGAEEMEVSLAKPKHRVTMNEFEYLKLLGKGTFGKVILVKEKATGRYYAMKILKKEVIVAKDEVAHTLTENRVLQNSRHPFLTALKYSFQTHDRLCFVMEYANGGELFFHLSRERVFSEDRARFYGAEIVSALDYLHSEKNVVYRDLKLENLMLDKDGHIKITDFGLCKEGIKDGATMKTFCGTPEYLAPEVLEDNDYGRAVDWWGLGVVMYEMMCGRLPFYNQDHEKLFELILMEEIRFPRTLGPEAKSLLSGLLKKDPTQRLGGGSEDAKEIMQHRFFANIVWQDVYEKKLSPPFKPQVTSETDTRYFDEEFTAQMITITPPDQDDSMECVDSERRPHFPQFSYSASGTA

With “Aβ42: synthetic 42 amino acid β-amyloid peptide, forward sequence, freshly prepared, predominantly monomeric (BioSource)”, the PI3K activity entry in assay [1] (10 μM peptide) is reported as “did not; also recorded: no effect”; in assay [1] (dose-response: Aβ1-42 0.05, 0.5, 5 μM, reverse Aβ42-1 5 μM), “no effect”. In addition, in the assay with pre-activated Akt1, the “insulin-conditioned Akt1 activity and p-Ser473 levels” value is given as “no effect”.
